Data from US11731955B2, “Crystal habit of quinoline derivative and preparation method for crystalline powder thereof” (CHIA TAI TIANQING PHARMACEUTICAL GROUP CO., LTD, priority 2018, dated 2023).
Structures can show the parent of a compound that is named as a salt.

Columns and labels:
Format in all cases: physicochemical
[1] = Specific surface area by multipoint BET measurement; details: for A (specific surface area): pulverized powders, dihydrochloride
Description: In the present application, the specific surface area A used herein refers to the total area per unit mass (m^2/g), as determined by multipoint BET specific surface area measurement.
The specific surface area was determined by multipoint BET specific surface area measurement, in which the absolute adsorption quantity of nitrogen in a sample was measured under different partial pressures, and the single-layer adsorption quantity was calculated by the BET theory, thus giving the specific surface area.

[2] = Dissolution properties of powders by basket method; details: 100 rpm, dihydrochloride; for Cumulative dissolution % (0.1 mol/L hydrochloric acid): 1000 mL
Description: The dissolution properties of powders 1 and 2 in 1000 mL of 0.1 mol/L aqueous hydrochloric acid solution and a standard medium of 10 mM phosphate buffer containing 0.075% SDS, pH 6.8 were measured by basket method at 100 rpm and compared.

[3] = Particle-size distribution by laser particle size analyzer; details: laser particle-size distribution of pulverized powders; dihydrochloride
Excerpt: “X10” as used herein refers to the particle size for 10% of the particles in the particle size distribution, i.e., the fraction of particles smaller than this particle size accounts for 10% of all particles; “X50” refers to the particle size for 50% of the particles in the particle size distribution, i.e., the fraction of particles smaller than this particle size accounts for 50% of all particles; “X90” refers to a particle size for 90% of the particles in the particle size distribution, i.e., the fraction of particles smaller than this particle size accounts for 90% of all particles.
The particle-size distribution of the materials was determined by laser. Instrument: fully automatic dry and wet two-in-one laser particle size analyzer, VIBRI (HELOSBR).

[4] = Determination of solubility (saturation concentration); details: for solubility thermodynamic at 24 h: aqueous buffer, thermodynamic from solid, shaker at 37° C.
Description: 14.16 mg of the crystalline powder of the compound of the formula II acquired in Example 1 was dissolved, shaken overnight (24 hours) on a shaker at 37° C. and cooled to room temperature. The saturation concentration was measured using the supernatant. As a result, the saturation concentrations in the phosphoric acid solutions at pH 6.8 and 7.0 for 24 hours were 0.8 and 0.3 μg/mL, respectively.

Row | A (specific surface area) [1] | Cumulative dissolution % (10 mM phosphate buffer containing 0.075% SDS, pH 6.8) ([2]; 3 min) | Cumulative dissolution % (0.1 mol/L hydrochloric acid) ([2]; 3 min) | Cumulative dissolution % (10 mM phosphate buffer containing 0.075% SDS, pH 6.8) ([2]; 5 min) | Cumulative dissolution % (0.1 mol/L hydrochloric acid) ([2]; 5 min) | X50 [3] | X90 [3] | specific surface area ([1]; bulk crystal recrystallized in ethanol (Comparative Example 1)) | Biopharmaceutical Classification System (BCS) solubility classification [4] | solubility thermodynamic at 24 h ([4]; phosphoric acid solution pH 6.8, 24 hours) | solubility thermodynamic at 24 h ([4]; phosphoric acid solution pH 7.0, 24 hours) | Compound
1 | 11.09 ± 0.04 m^2/g | 77.4% | 89.6% | 90.2% | 94.2% | 3.96 μm | 64.89 μm |  |  |  |  | COc1cc2c(Oc3ccc4[nH]c(C)cc4c3F)ccnc2cc1OCC1(N)CC1 [Powder 1, Anlotinib dihydrochloride]
2 | 13.07 ± 0.05 m^2/g | 80.1% | 93.7% | 86.4% | 95.8% | 2.66 μm | 14.01 μm |  |  |  |  | COc1cc2c(Oc3ccc4[nH]c(C)cc4c3F)ccnc2cc1OCC1(N)CC1 [Powder 2, Anlotinib dihydrochloride]
3 |  |  |  |  |  |  |  | 3.4750 m^2/g |  |  |  | COc1cc2c(Oc3ccc4[nH]c(C)cc4c3F)ccnc2cc1OCC1(N)CC1 [Anlotinib dihydrochloride, reference compound]
4 |  |  |  |  |  |  |  |  | low solubility | 0.8 µg/mL | 0.3 µg/mL | COc1cc2c(Oc3ccc4[nH]c(C)cc4c3F)ccnc2cc1OCC1(N)CC1 [Example 1, Anlotinib dihydrochloride]
